Results taken from the NIST ThermoML archive (doi:10.1021/je301219c).
Numbers after ± are expanded uncertainties.

Conditions: Liquid, Ebulliometric method (Recirculating still)

CCN(CC)CCO [(diethylamino)ethanol]
vapor or sublimation pressure (418.34 K): 60 ± 1.2 kPa | vapor or sublimation pressure (435.94 K): 101.3 ± 2.1 kPa

CCNCC [diethylamine]
vapor or sublimation pressure (313.64 K): 60 ± 1 kPa | vapor or sublimation pressure (328.67 K): 101.3 ± 1.8 kPa

CO [methanol]
vapor or sublimation pressure (324.92 K): 60 ± 0.87 kPa | vapor or sublimation pressure (337.82 K): 101.3 ± 1.6 kPa
